Measured values: patent US20200163984A1, “USE OF ISOVALERYL SPIRAMYCIN I, II AND/OR III IN MANUFACTURING MEDICAMENT FOR TREATING AND/OR PREVENTING TUMOR, AND MEDICAMENT” (SHENYANG FUYANG PHARMACEUTICAL TECHNOLOGY CO., LTD., priority 2017, published 2020)
Read-outs that look alike come from different tables or passages of the source.

Legend:
[1] = tested on: transplanted tumor of human large cell lung cancer H460 cells; test: H460 transplanted tumor in nude mice
Procedure: (§1) Then cell concentration was adjusted to 1×10^7/ml with matrigel, then each nude mouse was inoculated subcutaneously with 0.2 ml of cells at its right armpit and recorded as the first day of inoculation. When the tumor grows to be greater than or equal to 100 mm^3, the mice were randomly divided into 11 groups with 6 mice in each group: isovaleryl spiramycin I groups with doses of 25, 50 and 100 mg/kg, isovaleryl spiramycin II groups with doses of 25, 50 and 100 mg/kg, and isovaleryl spiramycin III groups with doses of 25, 50 and 100 mg/kg. Each group was continuously administered intragastrically for 30 days with a dose of 20 ml/kg. The mice were sacrificed the next day after drug withdrawal and the indicators were tested. The long diameter and short diameter of the tumor, and the body weight of each mouse were recorded every 3 days from drug administration to nude mouse sacrifice.
(§2) The body weight of the nude mice and the long diameter (a) and short diameter (b) of the transplanted tumor were measured every 3 days, and the tumor volume (v), relative tumor volume (RTV) and relative tumor proliferation rate (T/C) are calculated respectively according to the following formulas, wherein V=a×b^2/2; RTV=V/V0 (V0 is the tumor volume before administration, V is the tumor volume before sacrifice), and T/C (%)=treatment group RTV/model control group RTV×100%.
(§3) Each mouse was weighed and sacrificed. After the tumor was completely stripped off from the body of the mouse, the non-tumor tissues such as blood stains and fat were removed to weigh the tumor and calculate the tumor growth inhibition rate. The average tumor weight of each group of mice is used as an indicator of efficacy. Tumor growth inhibition rate (%)=(1−the average tumor weight of the treatment group/the average tumor weight of the model group)×100%.

[2] = tested on: transplanted tumor of human non-small cell lung cancer cell H1299
Procedure: as §1, §2, §3

[3] = tested on: transplanted tumor of human esophageal cancer cell TE-1; test: TE-1 transplanted tumor in nude mice
Procedure: as §1, with “group: a model group, a cyclophosphamide group,” for “group:”
as §2, §3

[4] = tested on: transplanted tumor of human pancreatic cancer cell PANC-1; test: PANC-1 transplanted tumor in nude mice; conditions: for Tumor Volume (mm3) (d 1): d1
Procedure: as §1, with “group: a model group, a cyclophosphamide group,” for “group:”
as §2, §3

[5] = H460, 25 mg/kg (low dose) i.g. 30 days
[6] = H460, 50 mg/kg (medium dose) i.g. 30 days
[7] = H460, 100 mg/kg (high dose) i.g. 30 days
[8] = H1299, 25 mg/kg (low dose) i.g. 30 days
[9] = H1299, 50 mg/kg (medium dose) i.g. 30 days
[10] = H1299, 100 mg/kg (high dose) i.g. 30 days
[11] = TE-1, 12.5 mg/kg (low dose) i.g. 30 days
[12] = TE-1, 25 mg/kg (medium dose) i.g. 30 days
[13] = TE-1, 50 mg/kg (high dose) i.g. 30 days
[14] = PANC-1, 12.5 mg/kg (low dose) i.g. 30 days
[15] = PANC-1, 25 mg/kg (medium dose) i.g. 30 days
[16] = PANC-1, 50 mg/kg (high dose) i.g. 30 days

## COC1C(OC(C)=O)CC(=O)OC(C)CC=CC=CC(OC2CCC(N(C)C)C(C)O2)C(C)CC(CC=O)C1OC1OC(C)C(OC2CC(C)(O)C(OC(=O)CC(C)C)C(C)O2)C(N(C)C)C1O (centres unmarked) [Isovaleryl spiramycin II, isovaleryl spiramycin II]
[1]; [5]
  Inhibition Rate (tumor growth inhibition rate): 14.22%
  Relative Tumor Proliferation Rate (T/C): 51.97%
  Relative Tumor Volume (RTV): 5.46 ± 1.87
  Tumor Volume (d 1): 147.44 ± 15.40 mm3
  Tumor Volume (d 30): 804.17 ± 292.57 mm3
  Tumor Weight: 1.48 ± 0.24 g
[1]; [6]
  Inhibition Rate (tumor growth inhibition rate): 34.43%
  Relative Tumor Proliferation Rate (T/C): 46.49%
  Relative Tumor Volume (RTV): 4.88 ± 1.36
  Tumor Volume (d 1): 146.77 ± 18.26 mm3
  Tumor Volume (d 30): 700.40 ± 143.83 mm3
  Tumor Weight: 1.13 ± 0.08 g
[1]; [7]
  Inhibition Rate (tumor growth inhibition rate): 61.12%
  Relative Tumor Proliferation Rate (T/C): 37.89%
  Relative Tumor Volume (RTV): 3.98 ± 1.10
  Tumor Volume (d 1): 149.76 ± 13.12 mm3
  Tumor Volume (d 30): 604.38 ± 195.98 mm3
  Tumor Weight: 0.67 ± 0.20 g
[1]; H460, low, medium and high doses, P<0.05
  tumor volume and relative tumor volume compared with the model group: significantly lower
[1]; mouse, in vivo
  mouse weight compared with the model group: no significant changes
[2]; [8]
  Inhibition Rate (tumor growth inhibition rate): 17.32%
  Relative Tumor Proliferation Rate (T/C): 83.01%
  Relative Tumor Volume (RTV): 10.64 ± 0.92
  Tumor Volume (d 1): 139.13 ± 12.26 mm3
  Tumor Volume (d 30): 1474.57 ± 104.54 mm3
  Tumor Weight: 1.44 ± 0.29 g
[2]; [9]
  Inhibition Rate (tumor growth inhibition rate): 44.21%
  Relative Tumor Proliferation Rate (T/C): 46.94%
  Relative Tumor Volume (RTV): 6.02 ± 1.07
  Tumor Volume (d 1): 138.94 ± 20.16 mm3
  Tumor Volume (d 30): 821.57 ± 90.36 mm3
  Tumor Weight: 0.97 ± 0.16 g
[2]; [10]
  Inhibition Rate (tumor growth inhibition rate): 58.37%
  Relative Tumor Proliferation Rate (T/C): 36.86%
  Relative Tumor Volume (RTV): 4.72 ± 1.57
  Tumor Volume (d 1): 136.94 ± 14.60 mm3
  Tumor Volume (d 30): 634.05 ± 180.18 mm3
  Tumor Weight: 0.73 ± 0.25 g
[2]; H1299, low, medium and high doses, P<0.05
  tumor volume and relative tumor volume compared with the model group: significantly lower
[2]; mouse, in vivo
  mouse weight compared with the model group: no significant changes
[3]; [11]
  Inhibition Rate (tumor growth inhibition rate): 24.87%
  Relative Tumor Proliferation Rate (T/C): 70.32%
  Relative Tumor Volume (RTV): 7.92 ± 6.86
  Tumor Volume (d 1): 134.33 ± 57.77 mm3
  Tumor Volume (d 30): 1027.37 ± 363.55 mm3
  Tumor Weight: 1.18 ± 0.60 g
[3]; [12]
  Inhibition Rate (tumor growth inhibition rate): 43.78%
  Relative Tumor Proliferation Rate (T/C): 50.51%
  Relative Tumor Volume (RTV): 6.99 ± 5.39
  Tumor Volume (d 1): 195.76 ± 76.95 mm3
  Tumor Volume (d 30): 1075.36 ± 720.20 mm3
  Tumor Weight: 0.88 ± 0.46 g
[3]; [13]
  Inhibition Rate (tumor growth inhibition rate): 72.48%
  Relative Tumor Proliferation Rate (T/C): 36.49%
  Relative Tumor Volume (RTV): 6.97 ± 7.85
  Tumor Volume (d 1): 143.85 ± 16.25 mm3
  Tumor Volume (d 30): 570.92 ± 293.97 mm3
  Tumor Weight: 0.43 ± 0.26 g
[3]; TE-1, low, medium and high doses, P<0.05
  tumor volume and relative tumor volume compared with the model group: significantly lower
[3]; mouse, in vivo
  mouse weight compared with the model group: no significant changes
[4]; [14]
  Inhibition Rate (tumor growth inhibition rate): 20.55%
  Tumor Weight: 2.16 ± 0.51 g
[4]; [15]
  Inhibition Rate (tumor growth inhibition rate): 41.72%
  Tumor Weight: 1.58 ± 0.51 g
[4]; [16]
  Inhibition Rate (tumor growth inhibition rate): 56.81%
  Tumor Weight: 1.17 ± 0.47 g
[4]; PANC-1, high dose i.g. 30 days
  Relative Tumor Proliferation Rate (T/C): 44.44%
[4]; PANC-1, low dose i.g. 30 days
  Relative Tumor Proliferation Rate (T/C): 79.23%
[4]; PANC-1, low, medium and high doses, P<0.05
  tumor volume and relative tumor volume compared with the model group: significantly lower
[4]; PANC-1, medium dose i.g. 30 days
  Relative Tumor Proliferation Rate (T/C): 60.58%
[4]; PANC-1 nude mice, 12.5 mg/kg
  Relative Tumor Proliferation Rate (T/C): 79.23%
  Relative Tumor Volume (RTV): 13.87 ± 1.53
  Tumor Volume (mm3) (d 1): 104.64 ± 10.69 mm3
  Tumor Volume (mm3) (d30): 1450.36 ± 218.20 mm3
[4]; PANC-1 nude mice, 25 mg/kg
  Relative Tumor Proliferation Rate (T/C): 60.58%
  Relative Tumor Volume (RTV): 10.60 ± 1.10
  Tumor Volume (mm3) (d 1): 105.81 ± 11.20 mm3
  Tumor Volume (mm3) (d30): 1113.42 ± 71.14 mm3
[4]; PANC-1 nude mice, 50 mg/kg
  Relative Tumor Proliferation Rate (T/C): 44.45%
  Relative Tumor Volume (RTV): 7.78 ± 1.71
  Tumor Volume (mm3) (d 1): 119.69 ± 14.63 mm3
  Tumor Volume (mm3) (d30): 914.69 ± 130.26 mm3
[4]; mouse, in vivo
  mouse weight compared with the model group: no significant changes
